Laboratory results taken from patent US20180015101A1, “COMPOSITIONS AND METHODS FOR ANTIGEN-SPECIFIC TOLERANCE” (INSERM (INSTITUT NATIONAL DE LA SANTÉ ET DE LA RECHERCHE …, priority 2014, published 2018).

Legend:
[1] = test system: HO-1^+ MoDCs; assay: MoDC recruitment in draining LN after intradermal injection; format: in vivo; details: given as dermal migration inhibitor in CoPP-injected mice
Protocol: Isolation of murine APCs and co-culture with autoreactive CTLs: For MHC-II^+ and F4/80^+ cells isolation, skin-draining LNs were removed 24 hours after intradermal injection in the back or in the ear. Single-cell suspensions were prepared by enzymatic lymph node disaggregation with collagenase D (Sigma-Aldricht). Cells were stained with anti-MHC-II-FITC (clone AF6-120.1, BD pharmingen) or anti-F4/80-PE (clone BM8, eBioscience) monoclonal antibodies as primary labeling reagent and respectively with anti-FITC or anti-PE microbeads (Miltenyi) as secondary reagent. After magnetic separation, we checked that purity was >82% for CD11b^+CD11c^lowLy6C^highF4/80^+ cells in CoPP-OVA immunized mice. These cells were co-cultured with autoreactive CTLs (respectively 1:1 and 1:5 APC to CTL ratio) overnight for velocity measurement and transwell migration assay. […]

[2] = test system: NOD mice; details: administered systemically before disease onset; cited from earlier work
[3] = test system: HO-1; assay: HO-1 expression in MHC-II+ cells of draining lymph nodes after intradermal injection (FACS); format: in vivo, mice
Protocol: Isolation of murine APCs and co-culture with autoreactive CTLs: For MHC-II^+ and F4/80^+ cells isolation, skin-draining LNs were removed 24 hours after intradermal injection in the back or in the ear. Single-cell suspensions were prepared by enzymatic lymph node disaggregation with collagenase D (Sigma-Aldricht). Cells were stained with anti-MHC-II-FITC (clone AF6-120.1, BD pharmingen) or anti-F4/80-PE (clone BM8, eBioscience) monoclonal antibodies as primary labeling reagent and respectively with anti-FITC or anti-PE microbeads (Miltenyi) as secondary reagent. After magnetic separation, we checked that purity was >82% for CD11b^+CD11c^lowLy6C^highF4/80^+ cells in CoPP-OVA immunized mice. These cells were co-cultured with autoreactive CTLs (respectively 1:1 and 1:5 APC to CTL ratio) overnight for velocity measurement and transwell migration assay.
(§1) Intradermal immunization of mice and diabetes induction: Eight to ten week-old Rip-OVAhigh mice received two intradermal injections in the back with 70 μg of CoPP (Livchem) prepared as described and 20 μg of endofree ovalbumin (Hyglos) in 10 μl. One hundred and forty micrograms of MnPP (Livchem) prepared as described (18) was added to the preparation for HO-1-inhibition experiments. Forty micrograms of Alexa Fluor® 488 ovalbumin (Molecular Probes) has been used for phagocytosis assay. For diabetes induction, mice were injected i.v. the following day with 0.5×10^5 autoreactive cytotoxic OT-I CD8^+ T cells (purity >95%) previously co-cultured or not with MHC-II^+ or F4/80^+ cells during 4 hours.
(§2) Flow Cytometry: Single-cells suspensions of spleen and lymph nodes were stained with anti-CD8 (clone 53-6.7), anti-CD45.1 (clone A20), anti-CD49b/α2 (clone DX5), anti-CD49d/α4 (clone RI-2), anti-ITGAE/αE (clone M290), anti-CD29/β1-integrin (clone Ha2/5), anti-CD18/β2-integrin (clone C71/16), anti-CD61/β3-integrin (clone 2C9.G2), anti-CD62E (clone 10E9.6), anti-CD62L (clone Mel14), anti-PSGL1 (clone 2PH1), anti-ICAM-1 (clone 3E2), anti-VCAM-1 (clone 429), anti-CD183/CXCR3 (clone CXCR3-173), anti-CD195/CCR5 (clone C34-3448), anti-GITR (clone DTA-1), anti-PD-1 (clone J43), anti-CD28 (clone 37.51), anti-CD38 (clone 90), anti-CD69 (clone H1.2F3), anti-CD44 (clone IM7), anti-CD107b (clone ABL-93) antibodies. All antibodies are from BD Biosciences. Intracellular staining of HO-1 using BD cytofix/cytoperm kit following manufacturers' recommendations were performed with anti-HO-1 antibody (clone HO-1-2, abcam) as primary labeling reagent and with anti-anti-IgG1 (clone MOPC-21) monoclonal antibody conjugated to a fluorochrome as secondary labeling reagent.

[4] = test system: C57BL/6 mice; assay: Experimental Autoimmune Encephalomyelitis (EAE), prophylactic and curative intradermal treatment; format: in vivo; details: for protection against EAE (clinical score): i.d., low dose CoPP 0.2 mg/mouse, preventive or curative settings
Protocol: Experimental Autoimmune Encephalomyelitis (EAE) induction: Briefly, C57BL/6 were immunized by a subcutaneous injection of emulsified complete freund adjuvant (CFA, sigma aldrich) complemented with mycobacterium tuberculosis (400 μg, BD) and MOG35-55 peptide (200 μg, genecust). Pertussis toxin is injected (200 ng i.v, VWR) at the time of immunization and two days later. Clinical signs of EAE were evaluated daily and scored as follows: 0, normal; 1, limp tail; 2, partial paralysis of the hind limbs; 3, complete paralysis of the hind limbs; 4, hind-limb paralysis and forelimb weakness; 5, moribund or deceased
[…] Same injections were repeated twice at three days interval. For curative treatment, mice were treated with one injection in each ear at the EAE onset (i.e., mean clinical score, 0.72±0.1) with the same quantity than in prophylactic treatment. Same injections were repeated twice at three days interval after EAE onset.

[5] = test system: Rip-OVA^high mice; assay: Diabetes induction in Rip-OVAhigh mice by transfer of autoreactive CTLs after immunization; format: in vivo; details: intradermal injection one day before CTL transfer
Protocol: as §1, with “hours. […]” for “hours.”
Histological analysis: For evaluation of insulitis, pancreata were snap-frozen and cryosections (8 μm thick) were acetone-fixed. Sections were stained with H&E (Thermo Electron Corp.), and the degree of insulitis was evaluated microscopically.
Light-sheet-based fluorescent microscopy analysis: Animals were perfused with PFA 4% and washed with PBS. […] For GFP fluorescence imaging, we used a 525/50 band pass filter on the turret. […] The images stacks are analyzed using ImageJ software (Rasband, W. S., ImageJ, U. S. National Institutes of Health, Bethesda, Md., USA, http://imagej.nih.gov/ij/, 1997-2012).

[6] = test system: Human monocytic THP-1 cells; assay: HO-1 expression in THP-1 cells after HO-1 inducer treatment; format: cell-based; details: 16 hours in vitro
Protocol: Human THP-1 monocytic cell line and co-culture with CD8^+ T cells clones: THP-I cells were cultured in RPMI 1640 (Gibco) supplemented with 10% fetal bovine serum (Eurobio), 1% glutamine (Gibco), 50 IU/mL penicillin 50 IU/mL streptomycin (Gibco) and 200 nM PMA (Sigma-Aldrich) under standard conditions as previously described (36).
as §2

[7] = test system: Human PBMC; assay: HO-1 expression in human PBMC after in vitro hemin treatment; format: cell-based; details: 4 hours in vitro
Protocol: Human and non-human primate PBMC: Human PBMCs were obtained at the Etablissement Français du Sang in Nantes from blood of healthy donors. After Ficoll-Paque density gradient centrifugation (GE Healthcare), PBMC were cultured in RPMI 1640 (Gibco) supplemented with 10% fetal bovine serum (Eurobio), 1% glutamine (Gibco), 50 IU/mL penicillin 50 IU/mL streptomycin (Gibco) in presence or not of CoPP or hemin during 4 hours.
as §2, with “Intracellular staining of HO-1 using BD cytofix/cytoperm kit following manufacturers' recommendations were performed with anti-HO-1 antibody (clone HO-1-2, abcam) as primary labeling reagent and with anti-anti-IgG1 (clone MOPC-21) monoclonal antibody conjugated to a fluorochrome as secondary labeling reagent.” left out

[8] = test system: HO-1; assay: HO-1 induction in lymph nodes of baboons after intradermal Normosang; format: in vivo, Baboons (Papio anubis); details: 24 h after intradermal 6.25, 12.5 or 25 mg
Protocol: Non-Human primates: Baboons (Papio anubis, from the CNRS Primatology Center, Rousset, France) were negative for all quarantine tests. Animals were housed at the large animal facility of our laboratory following the recommendations of the Institutional Ethical Guidelines of the Institut National de la Santé Et de la Recherche Médicale, France. All experiments were performed under general anaesthesia with Zoletil (Virbac, Carron, France). Three Baboons were injected intradermally in the inguinal fold with respectively 6.25 mg (500 μL), 12.5 mg (500 μL) or 25 mg (1 mL) of clinical hemin (Normosang®). A non-treated baboon has served as control. Inguinal lymph nodes were surgically removed 24 hours after intradermal injection. Single-cell suspensions for flow cytometry analysis were prepared by enzymatic lymph node disaggregation with Collagenase D (Sigma-Aldricht).
Intradermal immunization with Normosang®: Three Baboons were injected intradermally in the inguinal fold with respectively 6.25 mg (500 μL), 12.5 mg (500 μL) or 25 mg (1 mL) of clinical hemin (Normosang®). A non-treated baboon has served as control.
Inguinal lymph nodes were surgically removed 24 hours after intradermal injection. Single-cell suspensions for flow cytometry analysis were prepared by enzymatic lymph node disaggregation with Collagenase D (Sigma-Aldricht). […]

[9] = after CoPP intradermal injection

| Compound | effect on T1D [2] | protection against EAE (clinical score) [4] | diabetes development [5] | HO-1 expression in THP-1 cells [6] | further results |
| --- | --- | --- | --- | --- | --- |
| O=C(O)CCCCCCC1C(=O)NC(=O)N1CCC(O)C1CCCCC1 (stereo not shown) [BW245c] | – | – | – | – | effect on MoDC recruitment [1]: did not affect |
| [C-]#[O+] [CO, carbon monoxide] | inhibit T1D in NOD mice | – | – | – | – |
| C=CC1=C(C)c2cc3[n-]c(cc4nc(cc5[n-]c(cc1n2)c(C)c5CCC(=O)[O-])C(CCC(=O)[O-])=C4C)c(C)c3C=C.[Co+2].[H+].[H+] [CoPP, Cobalt protoporphyrin] | inhibit T1D in NOD mice | not sufficient to tolerize against EAE | protection was not observed | dose-dependently expressed HO-1 | duration of HO-1 induction [3, 9]: at least 72 hours; earliest time HO-1 induction observed [3, 9]: ≤ 24 h; localisation of HO-1 induction ([3]; intradermal injection): restricted to the draining LNs; increase of HO-1 expression in MHC-II+ cells in draining lymph nodes ([3]; intradermal injection, RIP-OVAhigh mice): 5.8 fold; MOG-specific CD4+ T-cell proliferation capacity ([4]; vs untreated mice): same proliferation capacity |
| MOG35-55: myelin oligodendrocyte glycoprotein (MOG) 35-55 peptide, cognate antigen in EAE (MEVGWYRSPFSRVVHLYRNGK; UniProt Q61885 63-83, looked up, fragment) | – | protection was not observed | – | – | – |
| ovalbumin | – | – | protection was not observed | – | – |
| protoporphyrin IX containing a ferric iron ion (Heme B) with a chloride ligand [hemin] | – | – | – | dose-dependently expressed HO-1 | HO-1 expression in human MHC-II+CD11clowCD14+ cells [7]: induced highest HO-1 expression; frequency of HO-1+ cells in draining LN [8]: dose-dependently increased |
